{"source": "patent US11970451B1", "about": "“6-(3-hydroxyphenyl)-2-methoxy-4-(3-methylphenyl)nicotinonitrile as an antimicrobial compound” (KING FAISAL UNIVERSITY, priority 2023, dated 2024)", "key": {"Candida albicans": {"test_system": "Candida albicans", "experiment": "Antimicrobial screening by agar dilution", "type": "cell-based", "details": "after 10, 20, 40 and 60 minutes at all dilutions 1:100, 1:200, 1:400, 1:800", "experimental": "(§1) The antibacterial properties of the synthesized compound 6-(3-hydroxyphenyl)-2-methoxy-4-(3-methylphenyl)nicotinonitrile were studied by the method of agar dilution. Test solutions of each compound was prepared in concentration of 1% using dimethylformamide as a solvent then they are diluted in physiological solution to obtain the final experimental dilutions 1:100, 1:200, 1:400, 1:800. The effects of these substances are compared with furacillin in a controllable study. The testing microbes used were gram positive bacteria Staphylococcus aureus, gram negative bacteria Pseudomonas aeruginosa and Escherichia coli and Candida albicans fungus. The experiments used for this survey were meat-pentonlu agar (EPA) for cultivation of bacteria and Saburo environment for the fungus. Each experiment used 1 mL of test solution on each plate […]. Two drops of emulsified with microbes feel were added. All experimental samples were taken from the agar after 10, 20, 40, 60 minutes in the environment on the basis of Patrk planted. The bacteria were cultivated at a temperature of 37° C. for 1 day and the mushroom was kept in a thermostat for […] at a temperature of 28° C. Then results were checked."}, "Escherichia coli": {"test_system": "Escherichia coli", "experiment": "Antimicrobial screening by agar dilution", "type": "cell-based", "details": "after 10, 20, 40 and 60 minutes at all dilutions 1:100, 1:200, 1:400, 1:800", "experimental": "as §1"}, "Pseudomonas aeruginosa": {"test_system": "Pseudomonas aeruginosa", "experiment": "Antimicrobial screening by agar dilution", "type": "cell-based", "details": "after 10, 20, 40 and 60 minutes at all dilutions 1:100, 1:200, 1:400, 1:800", "experimental": "as §1"}, "Staphylococcus aureus": {"test_system": "Staphylococcus aureus", "experiment": "Antimicrobial screening by agar dilution", "type": "cell-based", "details": "after 10, 20, 40 and 60 minutes at all dilutions 1:100, 1:200, 1:400, 1:800", "experimental": "as §1"}}}
{"smiles": "COc1nc(-c2cccc(O)c2)cc(-c2cccc(C)c2)c1C#N", "note": "[6-(3-hydroxyphenyl)-2-methoxy-4-(3-methylphenyl)nicotinonitrile]", "values": [{"measurement": "inhibition activity (in words)", "setting": "Candida albicans", "result": "highest inhibition activity"}, {"measurement": "inhibition activity (in words)", "setting": "Escherichia coli", "result": "highest inhibition activity"}, {"measurement": "inhibition activity (in words)", "setting": "Pseudomonas aeruginosa", "result": "highest inhibition activity"}, {"measurement": "inhibition activity (in words)", "setting": "Staphylococcus aureus", "result": "highest inhibition activity"}, {"measurement": "melting point", "result": "205 to 207", "unit": "°C"}]}
